Patent publication US9737075B2, “Synergistic benzoxaborole-containing anti-fungicidal composition” (The Penn State Research Foundation, priority 2015, dated 2017)
Values after ≈ are worked out from the molar mass of the structure shown. Where two headings read alike, the source gives them in different places.

Columns and labels:
Assay type in all cases: cell-based
[1] = test system: Colletotrichum orbiculare; test: Broth microdilution MIC of individual antifungals; details: read-out: Independent MIC
[2] = test system: Botrytis cinerea 10-1728; test: Broth microdilution MIC of individual antifungals; details: 101728; Botrytis cinerea 10-1728; individual antifungal, 25% PDB, about 25° C., 72 hours; range over N independent triplicate studies; read-out: Independent MIC
[3] = test system: Sclerotinia homoeocarpa; test: Broth microdilution MIC of individual antifungals; details: Clarireedia homoeocarpa; Sclerotinia homoeocarpa; individual antifungal, 25% PDB, about 25° C., 72 hours; range over N independent triplicate studies; read-out: Independent MIC
[4] = test system: Mucor sp.; test: Broth microdilution MIC of individual antifungals; details: individual antifungal, 25% PDB, about 25° C., 72 hours, range over N independent triplicate studies
[5] = test system: Magnaporthe grisea; test: microbe, parasite or virus in culture; details: Pyricularia oryzae, 72 h, read-out: Independent MIC
[6] = test system: Penicillium chrysogenum; test: Broth microdilution MIC of individual antifungals; details: read-out: Independent MIC
[7] = test system: Fusarium solani f. sp. pisi (MP VI); test: Broth microdilution MIC of individual antifungals; details: read-out: Independent MIC
[8] = test system: Mycosphaerella zeae-maydis; test: Broth microdilution MIC of individual antifungals; details: Didymella maydis, individual antifungal, 25% PDB, about 25° C., 72 hours, range over N independent triplicate studies
[9] = test system: Stachybotrys chartarum; test: Broth microdilution MIC of individual antifungals; details: individual antifungal, 25% PDB, about 25° C., 72 hours, range over N independent triplicate studies, read-out: Independent MIC
[10] = test system: Phytophthora pini; test: Broth microdilution MIC of individual antifungals; details: individual antifungal, 25% PDB, about 25° C., 72 hours, range over N independent triplicate studies
[11] = test system: Pythium aphanodermatum; test: Broth microdilution MIC of individual antifungals; details: individual antifungal, 25% PDB, about 25° C., 72 hours, range over N independent triplicate studies
[12] = test system: Aspergillus fumigatus; test: Broth microdilution MIC of individual antifungals; details: individual antifungal, 25% PDB, about 25° C., 72 hours, range over N independent triplicate studies, read-out: Independent MIC
[13] = test system: Fusarium graminearum; test: microbe, parasite or virus in culture; details: Fusarium graminearum, 72 h, read-out: Independent MIC
[14] = test system: Aspergillus flavus; test: Broth microdilution MIC of individual antifungals; details: read-out: Independent MIC
[15] = test system: Fusarium oxysporum ST33; test: Broth microdilution MIC of individual antifungals; details: individual antifungal, 25% PDB, about 25° C., 72 hours, range over N independent triplicate studies
[16] = test system: Alternaria solani; test: Broth microdilution MIC of individual antifungals; details: individual antifungal, 25% PDB, about 25° C., 72 hours, range over N independent triplicate studies, read-out: Independent MIC
[17] = test system: Fusarium oxysporum f. sp. lycopersici; test: Broth microdilution MIC of individual antifungals; details: individual antifungal, 25% PDB, about 25° C., 72 hours, range over N independent triplicate studies
[18] = test system: Aspergillus niger; test: Broth microdilution MIC of individual antifungals; details: read-out: Independent MIC
[19] = test system: Aureobasidium pullulans; test: Broth microdilution MIC of individual antifungals; details: individual antifungal, 25% PDB, about 25° C., 72 hours, range over N independent triplicate studies, read-out: Independent MIC
[20] = test system: two dozen different fungal organisms; test: Broth microdilution MIC, summary over the organisms examined; details: against many species tested here
Method: All antifungal susceptibility assays were conducted in triplicate and N independent times. Thus, the inhibition studies were conducted a total of 3·N times. […] Thus, each synergy assay (combination of two antifungals) was conducted in conjunction with independent MIC determination. FICI values were calculated by comparing the inhibition activity of the combination (benzoxaborole+another antifungal) against the efficacy of the individual antifungal within the same experiment (using the same experimental conditions).
The studies were performed in flat bottom, 96-well microtiter plates (Greiner Bio-One).
Plates sealed with clear polyester film (VWR) were incubated at a temperature of about 25° C. The progress of fungal growth was monitored at 48 hours, 72 hours, 7 days, and 15 days. […] In order to establish appropriate comparison between the different fungi, the FICI (thus, the MICs used) determination was done at 72 hours for all cases discussed herein.
The MICs of the individual antifungals (MICBoron and MICA) and in combination (MICBA) were determined after 72 hours of incubation. […] MICA is defined as the MIC value of every other individual non-benzoxaborole-based antifungal. MICBA is defined as the MIC value when the benzoxaborole antifungal is combined with another non-benzoxaborole antifungal. […] The combination studies were performed in triplicate in flat bottom 96-well microtiter plates with a final media volume of 0.2 mL/well.

[21] = test system: Fusarium verticillioides; test: Broth microdilution MIC of individual antifungals; details: individual antifungal, 25% PDB, about 25° C., 72 hours, range over N independent triplicate studies, read-out: Independent MIC
[22] = test system: Botrytis cinerea B17; test: Broth microdilution MIC of individual antifungals; details: Botrytis cinerea B17; individual antifungal, 25% PDB, about 25° C., 72 hours; range over N independent triplicate studies; read-out: Independent MIC
[23] = test system: Rhizopus sp.; test: Broth microdilution MIC of individual antifungals; details: read-out: Independent MIC
[24] = test system: Candida albicans; test: Broth microdilution MIC of individual antifungals; details: read-out: Independent MIC
[25] = test system: Rhizoctonia solani; test: Broth microdilution MIC of individual antifungals; details: read-out: Independent MIC
[26] = individual antifungal, 25% PDB, about 25° C., 72 hours, range over N independent triplicate studies
[27] = Fusarium solani f. sp. pisi (MP VI), individual antifungal, 25% PDB, about 25° C., 72 hours, range over N independent triplicate studies
[28] = Rhizopus, 72 h, Rhizopus sp., individual antifungal, 25% PDB, about 25° C., 72 hours, range over N independent triplicate studies

Row | SMILES | MIC [1, 26] | MIC [2] | MIC [3] | MIC [4] | MIC [5] | MIC [6, 26] | MIC [7, 27] | MIC [8] | MIC [10] | MIC [12] | MIC [13] | MIC [14, 26] | MIC [16] | MIC [18, 26] | MIC [20] | MIC [21] | MIC [23, 28] | MIC [25, 26] | MIC ([6]; 72 h) | MIC ([24]; 72 h) | also measured
1 | O=C1C2CC=CCC2C(=O)N1SC(Cl)(Cl)Cl (stereo not drawn) [Captan, captan] | 0.39 to 0.78 µg/mL | 0.94 to 1.56 µg/mL | 2 to 4 µg/mL | 3.12 to 12.5 µg/mL | 0.19 to 0.2 µg/mL (≈ 0.632 to 0.665 µM) | 0.75 to 0.78 µg/mL | 3 to 3.12 µg/mL | 1 to 1.56 µg/mL | 0.39 µg/mL | 6.25 to 12.5 µg/mL | 0.78 to 0.8 µg/mL (≈ 2.59 to 2.66 µM) | 12.5 to 25 µg/mL | 1.5 to 3.12 µg/mL | 12.5 to 16 µg/mL | > 25 µg/mL | 1 to 2 µg/mL | 12.5 to 40 µg/mL | – | – | – | MIC [9]: 0.39 to 0.5 µg/mL; MIC [11]: 28 µg/mL; MIC [15]: 1 to 2 µg/mL; MIC [17]: 1.56 to 4 µg/mL; MIC [19]: 0.375 to 0.78 µg/mL; MIC [22]: 1.88 to 4 µg/mL
2 | N#Cc1c(Cl)c(Cl)c(Cl)c(C#N)c1Cl [Chlorothalonil, chlorothalonil] | 0.39 µg/mL | 0.2 to 0.5 µg/mL | 0.39 to 0.78 µg/mL | 0.78 to 1 µg/mL | – | 0.1 µg/mL | 12.5 to 25 µg/mL | 0.78 to 1 µg/mL | – | 0.1 to 0.2 µg/mL | 0.78 to 1.56 µg/mL (≈ 2.93 to 5.87 µM) | 0.1 to 0.2 µg/mL | 1 to 1.56 µg/mL | 0.39 to 1 µg/mL | > 25 µg/mL | 0.75 to 0.78 µg/mL | 0.78 µg/mL | 1.56 µg/mL | – | – | MIC [24, 26]: 0.78 µg/mL
3 | CNC(=S)S [Metam Sodium, Metam sodium] | – | 50 to 200 µg/mL | 6.25 µg/mL | 50 µg/mL | – | – | – | 6 to 6.25 µg/mL | 50 µg/mL | 25 µg/mL | 12.5 to 25 µg/mL | – | 12.5 to 15 µg/mL | – | > 25 µg/mL | 25 µg/mL | – | 25 to 50 µg/mL | 50 µg/mL | 25 µg/mL | MIC ([1]; 72 h): 12.5 to 25 µg/mL; MIC ([7]; Fusarium solani, 72 h): 25 to 50 µg/mL; MIC ([14]; 72 h): 25 µg/mL; MIC ([18]; 72 h): 50 µg/mL; MIC ([23]; Rhizopus, 72 h): 100 µg/mL
4 | S=C(S)NCCNC(=S)S [Zineb, zineb] | 3.13 to 6.25 µg/mL | 3 to 3.12 µg/mL | 6.25 to 12.5 µg/mL | – | 0.78 to 1.56 µg/mL (≈ 3.67 to 7.34 µM) | – | 6.25 to 12.5 µg/mL | 1.56 to 2 µg/mL | 25 µg/mL | 0.78 to 1.56 µg/mL | 1.56 µg/mL (≈ 7.34 µM) | – | 6.25 to 12.5 µg/mL | – | > 25 µg/mL | 3.12 to 6.25 µg/mL | – | – | 1.56 to 6.25 µg/mL | 3.12 µg/mL | MIC ([14]; 72 h): 1 to 1.56 µg/mL; MIC ([25]; 72 h): 3.12 µg/mL; MIC ([23]; Rhizopus sp., individual antifungal, 25% PDB, about 25° C., 72 hours, range over N independent triplicate studies): 12.5 µg/mL
